Measurements published in ChEMBL document CHEMBL1614630, “Extrapolation of preclinical pharmacokinetics and molecular feature analysis of "discovery-like" molecules to predict human pharmacokinetics” (Drug Metab Dispos, 2006).

Tests used:
[1] = Volume of distribution at steady state in rat after iv administration; details: in vivo
[2] = Clearance in dog after iv administration; details: in vivo
[3] = Volume of distribution at steady state in dog after iv administration; details: in vivo
[4] = Clearance in monkey after iv administration; details: macaca, in vivo
[5] = Volume of distribution at steady state in monkey after iv administration; details: macaca, in vivo
[6] = Clearance in human after iv administration; details: in vivo
[7] = Volume of distribution at steady state in human after iv administration; details: in vivo
[8] = Clearance in rat after iv administration; details: in vivo

Row | SMILES | Vdss [1] [L/kg] | clearance [2] [mL/min/kg] | Vd [3] [L/kg] | clearance [4] [mL/min/kg] | Vd [5] [L/kg] | clearance [6] [mL/min/kg] | Vd [7] [L/kg] | clearance [8] [mL/min/kg]
1 | COc1ccc([C@H](CC(=O)O)N2CCN(CCCc3ccc4c(n3)NCCC4)C2=O)cn1 | 1.5 | 5.4 | 0.9 | 9 | 0.3 | 1 | 0.2 | 
2 | CCCN1CCC[C@@H](c2cccc(S(C)(=O)=O)c2)C1 | 1.5 | 36.7 | 2.5 | 33.3 | 1.4 | 7.2 | 2.2 | 46.7
3 | OC(CCN1CCCCC1)(c1ccccc1)C1CC2C=CC1C2 (stereo not given) [BIPERIDEN] | 14 | 27 | 9.5 | 21.9 | 3.6 | 15.3 | 6.2 | 
4 | CN(C)CCCN1c2ccccc2Sc2ccc(Cl)cc21 [CHLORPROMAZINE] | 29.1 | 53 | 16.3 | 24.6 | 8 | 4.3 | 11.2 | 61
5 | COc1ccc([C@@H]2Sc3ccccc3N(CCN(C)C)C(=O)[C@@H]2OC(C)=O)cc1 [DILTIAZEM] | 3.6 | 59 | 21.4 | 34.5 | 3.5 | 12 |  | 82.3
6 | CCOc1cc(Cc2cnc(N)nc2N)cc(OCC)c1-n1cccc1 [EPIROPRIM] | 4.6 | 10.7 | 8.3 | 30.6 | 5.1 | 3.5 | 2.5 | 45
7 | COc1ccc(Cl)cc1[C@]1(F)C(=O)Nc2cc(C(F)(F)F)ccc21 [FLINDOKALNER] | 3.4 | 3.1 | 3.2 | 40.2 | 5.4 | 7.63 | 2.35 | 29.9
8 | C[C@H]1NCc2cc(-c3ccc4c(=O)c(C(=O)O)cn(C5CC5)c4c3OC(F)F)ccc21 [GARENOXACIN] | 0.9 | 2.4 | 1.3 | 3.4 | 1 | 1.2 | 1 | 12.1
9 | O=C(CCCN1CCC(O)(c2ccc(Cl)cc2)CC1)c1ccc(F)cc1 [HALOPERIDOL] | 10.4 |  | 37 |  | 6.6 |  |  | 
10 | Cc1ncc2n1-c1ccc(Cl)cc1C(c1ccccc1F)=NC2 [MIDAZOLAM] | 1.6 | 27 | 3 | 24.2 | 1.5 | 6.6 | 1.1 | 67
11 | CC#C[C@]1(O)CC[C@H]2[C@@H]3CCC4=CC(=O)CCC4=C3[C@@H](c3ccc(N(C)C)cc3)C[C@@]21C [MIFEPRISTONE] | 4.3 | 15.6 | 10.5 | 24.2 | 32.5 | 0.33 | 0.3 | 50
12 | COC(=O)C1=C(C)NC(C)=C(C(=O)OC)C1c1ccccc1[N+](=O)[O-] [NIFEDIPINE] | 0.13 |  | 1.15 |  | 0.5 |  |  | 
13 | CC1COc2c(N3CCN(C)CC3)c(F)cc3c(=O)c(C(=O)O)cn1c23 (stereo not given) [OFLOXACIN] | 1.66 | 2.65 | 1.15 | 7.5 | 1.6 | 4.53 | 1.78 | 26.3
14 | CCN1CCC[C@H]1CNC(=O)c1c(OC)ccc(Br)c1OC [REMOXIPRIDE] | 4.5 | 4.9 | 1.6 | 11.8 | 1.1 | 1.7 | 0.7 | 170
15 | Cc1cc(C)c(/C=C2\C(=O)Nc3ccccc32)[nH]1 [SEMAXANIB] | 1.6 | 52 | 1.4 | 25.7 | 1.45 | 14 | 0.98 | 45
16 | CCC1=C[C@@H]2CN(C1)Cc1c([nH]c3ccccc13)[C@@](C(=O)OC)(c1cc3c(cc1OC)N(C)[C@H]1[C@@](O)(C(=O)OC)[C@H](OC(C)=O)[C@]4(CC)C=CCN5CC[C@]31[C@@H]54)C2 [VINORELBINE] | 24.4 | 20 | 49.6 | 23.6 | 11.4 | 21 | 75.6 | 31.7
